Measured values: patent publication US20240124496A1, “BORONIC ACID COMPOUND AND METHOD FOR PRODUCING SAME” (OSAKA UNIVERSITY, priority 2021, published 2024)
Blank lines part the entries; values can stand above or below the compound they belong to.

Tests used:
stability after labeling = type: physicochemical; details: crude product solution with ascorbic acid added
Description: 3-(4,4,5,5-Tetramethyl-1,3,2-dioxaboran-2-yl)-α-methyl-L-tyrosine hydrochloride (Bpin-AMT) was dissolved in water to prepare a 1 w/v % aqueous solution. This aqueous solution (0.1 mL) was put in a microtube, and then aqueous [^131I]sodium iodide solution (0.03 mL, 1 MBq, Institute of Isotopes Co., Ltd.) and 0.4 w/v% aqueous N-bromosuccinimide (NBS) solution (0.03 mL) were added thereto, and the mixture was reacted at room temperature for 30 min. Then, to the reaction solution was added 3 w/v% aqueous ascorbic acid solution (0.03 mL) to stop the reaction to give a crude product solution of 3-iodo(^131I)-α-methyl-L-tyrosine (^131I-IAMT).
This crude product solution (1 μL) was analyzed by thin-layer chromatograph method (TLC). The sample was spotted on a thin-layer plate (silica gel G60), and a mixed solvent of acetonitrile/water (2/1) was used as a developing solvent. The thin-layer plate was exposed to an imaging plate for about 15 min, and then analyzed by a bioimage analyzer (Typhoon FLT7000, GE Healthcare, Chicago). 3-Iodo(^131I)-α-methyl-L-tyrosine was detected at Rf 0.72, and the radiochemical yield (RCY) was 86.1%. This compound was stable up to 7 days after labeling.

[1] = target: T1, amino acid transporter (LAT1) (Homo sapiens, UniProt Q01650); experiment: ^211At-AAMT intracellular uptake in MIA PaCa-2 cells; type: cell-based; details: 30 minutes; for inhibition of ^211At-AAMT intracellular uptake: excess amount (1 mM) added, ^211At-AAMT synthesized by the method of the present invention
T1 construct: endogenous in cells; host or cells: MIA PaCa-2 (human pancreatic cancer cells)
T1 sequence (Q01650 whole entry): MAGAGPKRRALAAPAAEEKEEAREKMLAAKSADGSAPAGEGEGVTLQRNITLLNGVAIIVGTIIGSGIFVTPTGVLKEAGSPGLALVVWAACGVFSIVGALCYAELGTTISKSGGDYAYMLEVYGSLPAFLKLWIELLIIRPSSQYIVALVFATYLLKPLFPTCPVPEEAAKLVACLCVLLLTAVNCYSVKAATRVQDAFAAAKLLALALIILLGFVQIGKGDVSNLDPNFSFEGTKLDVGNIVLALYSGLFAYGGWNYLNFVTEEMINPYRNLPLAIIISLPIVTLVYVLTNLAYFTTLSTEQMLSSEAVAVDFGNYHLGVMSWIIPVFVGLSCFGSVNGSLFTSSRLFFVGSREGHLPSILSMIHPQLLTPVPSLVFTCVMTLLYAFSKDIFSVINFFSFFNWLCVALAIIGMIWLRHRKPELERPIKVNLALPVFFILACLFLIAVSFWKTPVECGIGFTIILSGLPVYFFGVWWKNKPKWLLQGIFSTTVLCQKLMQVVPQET
T1 sequence (P08195 102-630 partner): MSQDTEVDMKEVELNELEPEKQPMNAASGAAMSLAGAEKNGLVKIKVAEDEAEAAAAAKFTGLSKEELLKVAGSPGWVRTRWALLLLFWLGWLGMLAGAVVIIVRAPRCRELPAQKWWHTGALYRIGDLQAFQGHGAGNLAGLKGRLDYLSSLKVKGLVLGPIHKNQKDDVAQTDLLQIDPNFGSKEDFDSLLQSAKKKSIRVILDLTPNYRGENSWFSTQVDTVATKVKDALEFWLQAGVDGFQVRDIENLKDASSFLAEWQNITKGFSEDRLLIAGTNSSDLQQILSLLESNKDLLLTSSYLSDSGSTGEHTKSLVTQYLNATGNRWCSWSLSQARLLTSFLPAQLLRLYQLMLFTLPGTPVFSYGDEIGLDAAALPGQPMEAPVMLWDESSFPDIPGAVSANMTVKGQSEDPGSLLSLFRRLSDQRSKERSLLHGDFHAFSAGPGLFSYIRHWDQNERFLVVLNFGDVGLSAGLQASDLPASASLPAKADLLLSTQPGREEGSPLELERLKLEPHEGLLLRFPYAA
Description: Human pancreatic cancer cells MIA PaCa-2 were seeded in a 24-well culture plate at a concentration of 1×10^5 cells/mL. After 2 days, the medium was removed, the cells were washed with PBS (−), and the medium was replaced with HEPES Buffer (amino acid free). To each well, the ^211At-AAMT synthesized by the method of the present invention or the conventional mercury method was added. In addition, an excess amount (1 mM) of BCH (LAT1 inhibitor) or unlabeled (AMT) was added. After culturing the cells for 30 minutes, the cells were washed with PBS (−), and lysed with 0.1 N NaOH, and the radioactivity of the lysate was measured. The ^211At-AAMT intracellular uptake (radioactivity count/protein amount) was calculated by correcting the radioactivity per protein amount. The results are shown in FIG. 6 (FIG. 6a: the method of the present invention, FIG. 6b: the conventional mercury method). In FIG. 6, CTL is control, BCH is 2-aminobicyclo[2,2,1]heptane-2-carboxylic acid, and AMT is α-methyltyrosine.

HEK293 cells = experiment: cell viability after addition of ^211At-AAMT; type: cell-based; details: 0.00-5.00 kBq per well, 24 hours, FIG. 7
Description: HEK293 cells were seeded in a 24-well culture plate at a concentration of 1×10^5 cells/mL. After 2 days, the medium was removed, the cells were washed with PBS (−), and the medium was replaced with HEPES Buffer (amino acid free). To each well, 0.00-5.00 kBq of the ^211At-AAMT synthesized by the method of the present invention or the conventional mercury method was added. After culturing the cells for 24 hours, the cell viability was examined. […] Industrial Applicability

[2] = produced by the mercury method; Non-Patent Document 1; cited from earlier work

Compound: C[C@](N)(Cc1ccc(O)c([131I])c1)C(=O)O [3-Iodo(^131I)-α-methyl-L-tyrosine, 3-iodo(^131I)-α-methyl-L-tyrosine]
- time stable after labeling (stability after labeling): up to 7 days

- inhibition of ^211At-AAMT intracellular uptake [1]: significantly inhibited
Compound: C[C@](N)(Cc1ccc(O)cc1)C(=O)O [AMT, α-methyltyrosine, reference compound]

- inhibition of ^211At-AAMT intracellular uptake [1]: significantly inhibited
Compound: NC1(C(=O)O)CC2CCC1C2 (centres unmarked) [BCH, 2-aminobicyclo[2,2,1]heptane-2-carboxylic acid, reference compound]

Compound: C[C@](N)(Cc1ccc(O)c([211At])c1)C(=O)O [^211At-AAMT, 3-astato (^211At)-α-methyl-L-tyrosine]
- cell viability, compared with the method of the present invention (HEK293 cells; synthesized by the conventional mercury method): consistent
- cell viability (HEK293 cells; synthesized by the method of the present invention): decreased in a dose-dependent manner
- stability of the produced ^211At-AAMT [2]: unstable
- ^211At-AAMT intracellular uptake and its inhibition by BCH and AMT, compared with the method of the present invention ([1]; synthesized by the conventional mercury method, FIG. 6b): consistent
- ^211At-AAMT intracellular uptake (radioactivity count/protein amount) ([1]; synthesized by the method of the present invention, control (CTL), FIG. 6a): strongly taken up
